# Laboratory results taken from patent US11535599B2, “Benzisoxazole derivative” (Sumitomo Pharma Co., Ltd., priority 2020, dated 2022).
# Like-named read-outs stand apart in the source and are kept apart here.
# What was measured:
# Rat striatum MAOB = Rat striatum MAOB (Rattus norvegicus (Rat), UniProt P19643); assay: Activity for inhibiting monoamine oxidase B (MAOB); format: biochemical
# Procedure: MAOB is an enzyme involved in oxidative de-amino acid reaction of an endogenous monoamine neurotransmitter such as dopamine. […] The effect of the present compounds for inhibiting MAOB in rat striatum and simian striatum was tested.
# Mitochondria⋅synaptosome fraction containing MAOB was prepared according to the following procedure. To striata of male Slc: Wistar rat (Japan SLC, Inc.) or male cynomolgus monkey (HAMRI CO., LTD.) was added 0.32 mol/L aqueous sucrose by 10 mL per 1 gram as wet weight of the tissue, and the mixture was homogenized. The homogenate was centrifuged at 4° C. at 1,000 g for 10 minutes, and the obtained supernatant was centrifuged again at 4° C. at 17,200 g for 20 minutes. To the obtained precipitate was added a prepared buffer solution (10 mmol/L Tris-HCl buffer solution (pH 7.4), 0.25 mol/L aqueous sucrose, 0.5 mmol/L EDTA-2K) by 10 mL per 1 gram as wet weight of the original tissue, and the mixture was centrifuged again at 4° C. at 17,200 g for 20 minutes. To the obtained precipitate was added the prepared buffer solution by 40 mL per 1 gram as wet weight of the original tissue. The mixture was suspended to be used as an enzyme homogenate solution.
# As a substance to be degraded by MAOB, ^14C-labeled β-phenylethylamine ([^14C] β-PEA) was used. [^14C] β-PEA and the present compound solution diluted to each concentration were incubated with the enzyme homogenate solution at 37° C. for a given period, and then the reaction was stopped by adding 3 mol/L cold HCl thereto. The reaction product was extracted with a mixture of water-saturated toluene and ethyl acetate (1:1). The supernatant organic layer was separated, a liquid scintillation cocktail (ACSII, GE Healthcare) was added to the separated organic layer, and the radioactivity was measured with a liquid scintillation counter (TRI-CARB 3100TR, Packard). The IC50 value of each compound was determined based on two parameter logistic model with the inhibitory data of each concentration, said data were obtained from plural trials.
# human CA-II = human CA-II (Homo sapiens (Human), UniProt P00918); assay: Activity for inhibiting carbonic anhydrase (CA); format: biochemical; details: 4-nitrophenyl acetate substrate
# Procedure: CA is a zinc metalloenzyme family which catalyzes reversible hydration between carbon dioxide, and bicarbonate and proton.
# As a substance for decomposition by CA-II, 4-nitrophenyl acetate was used herein. 4-Nitrophenyl acetate is […] with CA-II to produce 4-nitrophenol. […] To the diluted solution were added […] (final concentration: 5 mmol/L) and the present compound of each concentration, and the mixture was incubated at 37° C. under shading for 30 minutes. […] The IC50 of the compound was obtained through the two-parameter logistic model with the inhibitory rate data in each concentration which was obtained from plural trials.
# human Cav3.2 = human Cav3.2 (Homo sapiens (Human), UniProt O95180); assay: T-type calcium channel inhibitory activity, whole-cell patch-clamp with HEK293 cell; format: cell-based; details: for inhibition at 600 µM: HEK293, 600 μmol/L, read-out: Cav3.2 % inhibitory rate; for IC50: dose-reactive test, read-out: Cav3.2 IC50 (parenthesized)
# Sequence of human Cav3.2 (O95180 whole entry): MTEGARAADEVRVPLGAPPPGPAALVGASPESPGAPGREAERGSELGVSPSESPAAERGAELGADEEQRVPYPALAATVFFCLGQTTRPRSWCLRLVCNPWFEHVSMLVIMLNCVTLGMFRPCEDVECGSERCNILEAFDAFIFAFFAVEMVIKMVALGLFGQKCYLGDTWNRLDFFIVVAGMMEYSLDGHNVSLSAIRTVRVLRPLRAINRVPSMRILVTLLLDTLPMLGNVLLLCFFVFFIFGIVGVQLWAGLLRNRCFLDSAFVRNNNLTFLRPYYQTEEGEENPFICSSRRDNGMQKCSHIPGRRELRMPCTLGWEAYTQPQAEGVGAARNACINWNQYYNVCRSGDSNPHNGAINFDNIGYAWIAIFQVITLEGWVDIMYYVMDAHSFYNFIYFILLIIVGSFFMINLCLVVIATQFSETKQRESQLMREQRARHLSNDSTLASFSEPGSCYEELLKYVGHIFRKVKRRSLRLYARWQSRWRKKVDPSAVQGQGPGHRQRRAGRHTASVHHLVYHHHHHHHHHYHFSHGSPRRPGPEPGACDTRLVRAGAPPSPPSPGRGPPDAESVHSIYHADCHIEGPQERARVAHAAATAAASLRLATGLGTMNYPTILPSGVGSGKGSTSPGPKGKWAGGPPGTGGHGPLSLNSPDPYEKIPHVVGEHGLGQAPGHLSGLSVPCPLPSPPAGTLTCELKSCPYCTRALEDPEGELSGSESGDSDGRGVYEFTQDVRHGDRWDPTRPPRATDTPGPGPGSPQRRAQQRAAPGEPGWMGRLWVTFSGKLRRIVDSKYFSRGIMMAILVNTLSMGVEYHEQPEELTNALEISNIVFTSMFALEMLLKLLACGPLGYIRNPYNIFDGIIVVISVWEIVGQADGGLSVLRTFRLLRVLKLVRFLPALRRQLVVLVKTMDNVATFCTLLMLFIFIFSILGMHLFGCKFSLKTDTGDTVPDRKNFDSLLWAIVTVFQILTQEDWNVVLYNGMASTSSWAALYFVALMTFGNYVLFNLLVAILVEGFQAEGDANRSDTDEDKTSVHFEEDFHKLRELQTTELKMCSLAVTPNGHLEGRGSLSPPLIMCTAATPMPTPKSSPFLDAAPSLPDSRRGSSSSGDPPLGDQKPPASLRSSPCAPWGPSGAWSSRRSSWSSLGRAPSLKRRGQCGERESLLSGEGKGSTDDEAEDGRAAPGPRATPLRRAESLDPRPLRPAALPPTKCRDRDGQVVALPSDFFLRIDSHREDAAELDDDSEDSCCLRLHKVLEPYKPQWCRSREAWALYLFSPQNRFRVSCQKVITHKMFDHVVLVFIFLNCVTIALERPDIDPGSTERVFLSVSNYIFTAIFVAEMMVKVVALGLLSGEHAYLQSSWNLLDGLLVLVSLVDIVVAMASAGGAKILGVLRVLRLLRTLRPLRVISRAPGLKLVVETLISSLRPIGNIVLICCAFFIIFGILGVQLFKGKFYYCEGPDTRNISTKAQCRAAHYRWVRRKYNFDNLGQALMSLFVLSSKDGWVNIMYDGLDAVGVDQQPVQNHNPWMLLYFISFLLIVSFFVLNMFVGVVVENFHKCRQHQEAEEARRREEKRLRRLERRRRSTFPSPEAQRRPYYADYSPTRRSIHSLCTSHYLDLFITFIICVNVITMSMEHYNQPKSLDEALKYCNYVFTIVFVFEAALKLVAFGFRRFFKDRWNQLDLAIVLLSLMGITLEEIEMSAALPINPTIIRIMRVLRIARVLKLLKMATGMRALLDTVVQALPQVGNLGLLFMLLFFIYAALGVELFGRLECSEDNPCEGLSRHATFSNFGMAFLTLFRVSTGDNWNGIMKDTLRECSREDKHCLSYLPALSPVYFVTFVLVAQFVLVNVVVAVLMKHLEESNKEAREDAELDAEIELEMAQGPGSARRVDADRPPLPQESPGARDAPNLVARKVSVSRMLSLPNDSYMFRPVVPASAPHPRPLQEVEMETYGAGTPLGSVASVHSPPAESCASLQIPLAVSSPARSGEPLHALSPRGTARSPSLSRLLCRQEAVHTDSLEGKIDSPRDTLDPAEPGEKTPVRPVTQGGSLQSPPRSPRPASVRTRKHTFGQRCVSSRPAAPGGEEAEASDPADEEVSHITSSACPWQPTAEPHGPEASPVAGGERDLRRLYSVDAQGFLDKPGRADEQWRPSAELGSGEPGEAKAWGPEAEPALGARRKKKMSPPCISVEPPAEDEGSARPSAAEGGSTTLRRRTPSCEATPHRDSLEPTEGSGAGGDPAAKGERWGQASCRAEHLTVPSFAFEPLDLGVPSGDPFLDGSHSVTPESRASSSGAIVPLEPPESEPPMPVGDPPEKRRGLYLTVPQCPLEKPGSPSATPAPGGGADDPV
# Procedure: (§1) The inhibitory activity of the present compounds for T-type calcium channel was measured by whole-cell patch-clamp method with HEK293 cell (vendor of HEK 293 cell: ATCC, Manassas, Va., USA, builder of expressing cell: ChanTest Corporation., Cleveland, Ohio, USA), in which human Cav3.1, human Cav3.2, or human Cav3.3 is expressed. The culture medium used for HEK293 cell was prepared by adding fetal bovine serum (10%), sodium penicillin G (100 U/mL), streptomycin sulfate (100 μg/mL), and G418 (500 μg/mL) to a mixture medium of Dulbecco's modified Eagle's medium/Ham's F-12 medium. The whole-cell current was evaluated with IonWorks Barracuda system and Population Patch Clamp (both are provided by Molecular Device Corporation, Union City, Calif., USA). The extracellular recording solution used during the recording was Hanks' balanced salt solution. The internal recording solution used herein was 50 mmol/L CsCl, 90 mmol/L CsF, 5 mmol/L MgCl2, 1 mmol/L glycol ether diamine tetraacetic acid (EGTA), and 10 mmol/L 4-(2-hydroxyethyl)piperazine-1-ethanesulfonic acid (HEPES (pH 7.2). The holding voltage was held at −90 mV, then changed to −65 mV. 60 seconds later, −20 mV pulse was added thereto for 200 millisecond to activate the channel on plasma membrane and generate calcium current. The calcium current was recorded with an amplifier of IonWorks Barracuda system, and analyzed with a program of the system (Version 2.0.2). The record of the calcium current was obtained twice, before and after the addition of the compound. In the measurement after adding the compound, the cells were exposed to the recording solution containing the compound for more than 5 minutes and then the current was measured. In the analyses, the ratio of current readout after the compound addition per current readout before the compound addition was calculated, the calculated value was subtracted from one, and the obtained value was converted to percentage. […] The value obtained from each compound was canonicalized based on the two ends of values to obtain each inhibitory rate. The positive control compound used herein was TTA-A2 which is known as T-type calcium channel inhibitor. IC50 value was calculated with Hill equation.
# (§2) Each inhibitory rate (%) against T-type calcium channel at the evaluation concentration of the present compound (600 μmol/L) is shown in Table 12, in which the parenthesized values are IC50 values (μmol/L)) calculated from the dose-reactive test.
# human Cav3.1 = human Cav3.1 (Homo sapiens (Human), UniProt O43497); assay: as above; format: cell-based; details: for inhibition at 600 µM: HEK293, 600 μmol/L, read-out: Cav3.1 % inhibitory rate; for IC50: dose-reactive test, read-out: Cav3.1 IC50 (parenthesized)
# Procedure: as §1, §2
# human Cav3.3 = human Cav3.3 (Homo sapiens (Human), UniProt Q9P0X4); assay: as above; format: cell-based; details: for inhibition at 600 µM: HEK293, 600 μmol/L, read-out: Cav3.3 % inhibitory rate; for IC50: dose-reactive test, read-out: Cav3.3 IC50 (parenthesized)
# Sequence of human Cav3.3 (Q9P0X4 whole entry): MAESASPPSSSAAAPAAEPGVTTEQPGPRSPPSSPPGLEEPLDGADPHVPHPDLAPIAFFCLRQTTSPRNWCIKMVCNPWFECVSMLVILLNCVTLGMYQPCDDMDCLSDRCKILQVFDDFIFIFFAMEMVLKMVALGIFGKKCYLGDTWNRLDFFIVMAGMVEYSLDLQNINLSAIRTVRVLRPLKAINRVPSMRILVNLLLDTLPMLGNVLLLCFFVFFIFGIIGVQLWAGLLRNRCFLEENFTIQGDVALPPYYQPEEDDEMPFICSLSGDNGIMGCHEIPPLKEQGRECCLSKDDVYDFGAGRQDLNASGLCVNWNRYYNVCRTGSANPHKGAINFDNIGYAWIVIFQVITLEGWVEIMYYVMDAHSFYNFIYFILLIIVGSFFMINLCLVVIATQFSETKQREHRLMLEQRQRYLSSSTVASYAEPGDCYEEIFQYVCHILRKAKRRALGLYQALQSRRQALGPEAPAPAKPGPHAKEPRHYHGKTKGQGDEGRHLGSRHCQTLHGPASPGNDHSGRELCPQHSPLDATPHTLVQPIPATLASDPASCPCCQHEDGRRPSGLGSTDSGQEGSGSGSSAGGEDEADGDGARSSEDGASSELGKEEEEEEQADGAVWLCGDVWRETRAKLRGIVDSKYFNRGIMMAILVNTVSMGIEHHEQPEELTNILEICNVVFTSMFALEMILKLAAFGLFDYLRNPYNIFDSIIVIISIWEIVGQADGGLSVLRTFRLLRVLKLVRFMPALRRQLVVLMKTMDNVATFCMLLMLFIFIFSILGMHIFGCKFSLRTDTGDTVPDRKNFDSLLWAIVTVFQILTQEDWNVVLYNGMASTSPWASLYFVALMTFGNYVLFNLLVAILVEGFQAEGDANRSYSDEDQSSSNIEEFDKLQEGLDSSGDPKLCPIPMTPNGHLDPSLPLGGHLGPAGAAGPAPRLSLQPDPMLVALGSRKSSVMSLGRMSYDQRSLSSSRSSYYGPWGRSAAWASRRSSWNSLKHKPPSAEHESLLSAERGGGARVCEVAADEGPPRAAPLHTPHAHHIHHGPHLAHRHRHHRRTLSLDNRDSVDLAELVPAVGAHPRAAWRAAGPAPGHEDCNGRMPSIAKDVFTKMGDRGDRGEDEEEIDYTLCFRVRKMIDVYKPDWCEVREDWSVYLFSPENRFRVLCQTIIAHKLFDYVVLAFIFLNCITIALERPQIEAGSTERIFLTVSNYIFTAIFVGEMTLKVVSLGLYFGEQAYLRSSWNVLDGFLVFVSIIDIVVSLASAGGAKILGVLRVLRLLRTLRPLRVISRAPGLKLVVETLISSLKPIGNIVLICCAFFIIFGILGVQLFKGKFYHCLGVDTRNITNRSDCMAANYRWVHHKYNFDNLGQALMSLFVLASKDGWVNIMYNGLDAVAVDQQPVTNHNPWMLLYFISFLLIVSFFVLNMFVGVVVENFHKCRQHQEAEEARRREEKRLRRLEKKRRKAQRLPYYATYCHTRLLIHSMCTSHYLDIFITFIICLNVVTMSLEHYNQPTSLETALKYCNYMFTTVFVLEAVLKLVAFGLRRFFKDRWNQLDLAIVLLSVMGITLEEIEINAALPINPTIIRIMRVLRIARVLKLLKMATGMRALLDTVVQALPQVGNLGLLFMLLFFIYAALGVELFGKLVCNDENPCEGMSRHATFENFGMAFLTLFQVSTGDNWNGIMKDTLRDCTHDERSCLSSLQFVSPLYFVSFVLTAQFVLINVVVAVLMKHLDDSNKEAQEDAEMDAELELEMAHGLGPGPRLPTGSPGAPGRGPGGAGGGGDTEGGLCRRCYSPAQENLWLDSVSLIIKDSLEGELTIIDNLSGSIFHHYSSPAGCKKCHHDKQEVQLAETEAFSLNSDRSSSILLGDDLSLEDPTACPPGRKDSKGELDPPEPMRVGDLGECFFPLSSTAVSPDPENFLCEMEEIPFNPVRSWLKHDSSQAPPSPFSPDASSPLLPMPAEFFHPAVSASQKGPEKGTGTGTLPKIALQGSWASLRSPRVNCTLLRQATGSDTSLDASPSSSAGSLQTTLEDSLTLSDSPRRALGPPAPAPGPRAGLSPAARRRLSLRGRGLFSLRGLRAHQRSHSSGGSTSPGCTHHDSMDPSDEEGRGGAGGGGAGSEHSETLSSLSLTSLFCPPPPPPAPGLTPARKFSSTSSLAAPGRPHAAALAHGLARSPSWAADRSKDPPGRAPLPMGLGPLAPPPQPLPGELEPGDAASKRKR
# Procedure: as §1, §2
# [1] = tested on: reserpine-induced Parkinson's disease model mouse; assay: Potentiating effect of levodopa-induced hyperactivity in reserpine-induced Parkinson's disease model mouse; format: in vivo; details: Examples 12.5 or 25 mg/kg oral; rasagiline 3 or 10 mg/kg; with levodopa 200 mg/kg i.p.
# Procedure: Dopamine-depleted mice due to reserpine treatment are model mice of akinesia symptoms in Parkinson's disease, said symptoms are relieved with levodopa (L-DOPA). The effect of the present compounds for potentiating the levodopa's effect was tested.
# In the present test, male Crl: CD1 (ICR) mice (CHARLES RIVER LABORATORIES JAPAN, INC.) were used. 20-24 hours before starting the movement measurement, reserpine (3 mg/kg) was intraperitoneally administered to the mouse. One hour before starting the movement measurement, the present compound (12-.5 mg/kg or 25 mg/kg of. Examples 1, 2, 3, 4, and 5) was orally administered to the mouse. Shortly before starting the movement measurement, levodopa (200 mg/kg) with benserazide whose amount was ¼ of levodopa in free form was intraperitoneally administered to the mouse. The movement measurement was carried out for 90 minutes, and each total movement was compared.
# [2] = tested on: unilateral lesion model of nigrostriatal dopamine neuron induced with 6-OHDA; assay: Extending duration of levodopa-induced rotational behavior in 6-OHDA unilateral lesion model; format: in vivo, rat; details: Examples 10 or 30 mg/kg oral; rasagiline 0.6 mg/kg; with levodopa 5 mg/kg i.p.
# [3] = [14C] β-PEA substrate, read-out: Rat striatum MAOB IC50
# Sequence of Rat striatum MAOB (P19643 whole entry): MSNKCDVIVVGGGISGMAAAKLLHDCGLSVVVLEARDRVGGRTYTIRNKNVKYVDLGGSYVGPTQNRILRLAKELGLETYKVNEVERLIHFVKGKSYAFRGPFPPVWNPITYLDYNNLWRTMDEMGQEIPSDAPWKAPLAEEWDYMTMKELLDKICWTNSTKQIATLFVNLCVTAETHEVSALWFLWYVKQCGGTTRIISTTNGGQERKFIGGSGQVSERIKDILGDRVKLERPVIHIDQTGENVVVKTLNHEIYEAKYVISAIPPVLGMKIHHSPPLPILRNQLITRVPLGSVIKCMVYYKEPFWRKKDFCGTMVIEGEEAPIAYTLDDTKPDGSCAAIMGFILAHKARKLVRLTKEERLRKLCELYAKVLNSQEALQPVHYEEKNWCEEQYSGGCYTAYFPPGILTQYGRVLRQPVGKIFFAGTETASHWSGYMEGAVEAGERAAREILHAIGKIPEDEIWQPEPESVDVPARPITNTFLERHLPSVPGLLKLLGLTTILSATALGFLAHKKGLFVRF
SMILES,IC50 (Rat striatum MAOB; [3]) [µM],IC50 (human CA-II) [µM],inhibition at 600 µM (human Cav3.2) [%],inhibition at 600 µM (human Cav3.1) [%],inhibition at 600 µM (human Cav3.3) [%],"levodopa-induced hyperactivity (total movement, 90 minutes) [1]",rotational number in the late phase (100-120 minutes) [2],IC50 (human Cav3.2) [µM],IC50 (human Cav3.1) [µM],IC50 (human Cav3.3) [µM],"IC50 (Rat striatum MAOB; Rat striatum MAOB IC50, [14C] β-PEA substrate) [µM]","MAOB inhibitory action (Rat striatum MAOB; rat striatum, in words)"
"CCC(c1noc2ccccc12)S(N)(=O)=O (stereo not shown) [Example 6, 1-(1,2-benzoxazol-3-yl)propane-1-sulfonamide]",> 600,45.7,67.4,80.4,72.9,,,,,,,
"NS(=O)(=O)C1(c2noc3ccccc23)CC1 [Example 5, 1-(1,2-benzoxazol-3-yl)cyclopropane-1-sulfonamide]",> 600,5.2,54,64.5,55.6,significantly-potentiating effect of levodopa-induced hyperactivity,"did not show statistically-significant increase, but showed a tendency to increase the rotational number in the late phase",,,,,
"CCCC(c1noc2ccccc12)S(N)(=O)=O (stereo not shown) [Example 7, 1-(1,2-benzoxazol-3-yl)butane-1-sulfonamide]",> 600,32.9,,,,,,,,,,
"NS(=O)(=O)C(F)c1noc2ccccc12 (stereo not shown) [Example 3, 1-(1,2-benzoxazol-3-yl)-1-fluoromethane-sulfonamide]",101,0.084,64,69.9,61,significantly-potentiating effect of levodopa-induced hyperactivity,"did not show statistically-significant increase, but showed a tendency to increase the rotational number in the late phase",362,325,440,,
"C[C@H](NCc1ccc(OCc2cccc(F)c2)cc1)C(N)=O [safinamide, reference compound]",,,,,,,"did not show statistically-significant increase, but showed a tendency to increase the rotational number in the late phase",,,,0.193,strong MAOB inhibitory action
"COc1ccc2onc(C(C)S(N)(=O)=O)c2c1 (stereo not shown) [Example 10, 1-(5-methoxy-1,2-benzoxazol-3-yl)ethane-1-sulfonamide]",> 600,,57.7,68.5,69.7,,,,,,,
"CC(C)(c1noc2ccccc12)S(N)(=O)=O [Example 2, 2-(1,2-benzoxazol-3-yl)propane-2-sulfonamide]",> 600,79.2,64,72.7,70,significantly-potentiating effect of levodopa-induced hyperactivity,significantly increased the rotational number in the late phase,,,,,
"CC(F)(c1noc2ccccc12)S(N)(=O)=O (stereo not shown) [Example 8, 1-(1,2-benzoxazol-3-yl)-1-fluoroethane-1-sulfonamide]",> 600,2.2,70.3,83.1,73,,"did not show statistically-significant increase, but showed a tendency to increase the rotational number in the late phase",318,216,321,,
"CC(c1noc2ccc(F)cc12)S(N)(=O)=O (stereo not shown) [Example 11, 1-(5-fluoro-1,2-benzoxazol-3-yl)ethane-1-sulfonamide]",> 600,,50.8,56,54.3,,,,,,,
"NS(=O)(=O)C(F)(F)c1noc2ccccc12 [Example 4, 1-(1,2-benzoxazol-3-yl)-1,1-difluoromethane-sulfonamide]",389,0.023,,,,significantly-potentiating effect of levodopa-induced hyperactivity,,,,,,
"CC(c1noc2ccc(Cl)cc12)S(N)(=O)=O (stereo not shown) [Example 12, 1-(5-chloro-1,2-benzoxazol-3-yl)ethane-1-sulfonamide]",150,,91.5,95,93,,,,,,,
"CC(C)C(c1noc2ccccc12)S(N)(=O)=O (stereo not shown) [Example 9, 1-(1,2-benzoxazol-3-yl)-2-methylpropane-1-sulfonamide]",,,96.9,96.5,94.3,,,,,,,
